Reference: a melting point compilation (Tetko et al.; mined from patent text by program, amines drawn as free bases though some values may be those of a salt)

Row | Structure (SMILES) | melting point [°C]
1 | O=[N+]([O-])C[C@@H](O)[C@H](O)[C@@H](O)[C@@H](O)CO | 89 to 91
2 | CSc1ccc(-c2nc(SC)c(C#N)c(=O)n2-c2ccc(Cl)cc2)cc1 | 203 to 205
3 | CCOC(=O)C(C)C(NC(C)=O)C(C(C)=O)C(=O)Nc1ccc(Cl)cc1 (configuration not stated) | 169 to 173
4 | COc1cc(N)c(Cl)cc1C(=O)N[C@@H]1CCN(CCCOc2ccc(F)cc2)C[C@H]1F (relative stereo) | 125
5 | Cc1nn(-c2cc(Oc3ccc(N)cc3Cl)c(Cl)cc2Cl)c(=O)n1C(F)F | 161 to 162
6 | CC1(C)C(=O)Nc2cc(C(=O)CBr)ccc21 | 230 to 232
7 | CCCC(=O)NC1=NN(c2cccc(Cl)c2)CC1 | 168 to 169
8 | COc1ccc2cc3c(Cl)n[nH]c3nc2c1 | 296 to 297
9 | CSCCC(NC(=O)c1ccc(Cl)cc1)NC(=NC#N)Nc1cccnc1 (configuration not stated) | 104 to 105
10 | N#CC(C#N)=C1N(CCCN2CCCCC2)CCCN1CCCN1CCCCC1 | 88 to 90
11 | CC(=O)c1cc(I)c2c(c1)C=CC(C)(C)O2 | 102
12 | OC1COC(n2c(Cl)nc3cc(Cl)c(Cl)cc32)C(O)C1O (configuration not stated) | 184
13 | O=S(=O)(O)c1cncc(Br)c1 | > 300
14 | CCCCOC(=O)C(=C1SC=CS1)S(=O)(=O)C(C)C | 67 to 69
15 | O=C1c2cccc3cccc(c23)C(=O)N1CCN1CCN(CCO)CC1 | 165 to 166
16 | COC(=O)CCC1(CCC(=O)OC)CCC(=O)N1 | 70 to 73
17 | CCC(=O)Oc1ccc(NCc2c(F)c(F)c(C(F)(F)F)c(F)c2F)cc1C(=O)O | 188 to 191
18 | COCCOc1ccc(CCCOC(=O)NS(=O)(=O)NCCOC(C)C)c(Oc2ncc(Cl)cc2Cl)c1 | 87.5 to 88.4
19 | N#Cc1c(Br)c(Br)n(C#N)c1Br | 195 to 198
20 | COC(=O)[C@H](Cc1c[nH]cn1)NC(=O)[C@H](Cc1ccccc1)NC(=O)OCc1ccccc1 | 113 to 116
21 | NNc1nc(Cl)nc2c(Cl)cc(Cl)cc12 | > 280
22 | OCc1csc(N2CCCC2)n1 | 146 to 148

Row | Structure (SMILES) | melting point [°C]
23 | COC(=O)c1cc(N)nc(-c2ccc(Cl)c(OC)c2F)n1 | 188 to 190
24 | CCOC(=O)CNc1ncccc1NC(=O)c1ccc(F)cc1 | 127 to 128
25 | CC(C)(C#N)c1cc(Cn2cncn2)cc(C(C)(C)C(N)=O)c1 | 51 to 53
26 | O=C(Cn1ccnc1)c1ccc(F)cc1F | 125
27 | CCOC(=O)C1(C(N)=O)OCCO1 | 99 to 100
28 | COc1cc2c3c(n(C)c(=O)c2cc1OC)-c1cc2c(cc1C3=CCCCCBr)OCO2 | 196 to 197
29 | Cn1ncc2c1C(=O)C(Cl)=C(Cl)C2=O | 176 to 177
30 | CCn1nnnc1C(CO)=C(c1ccc(F)cc1)c1ccc(F)cc1 | 103 to 111
31 | COP(=O)(COS(=O)(=O)c1c(C)cccc1Cl)OC | 55 to 57.5
32 | CC(=O)n1c(=O)n(-c2ccc(Cl)cc2)c(=O)n1C(C)=O | 148 to 150
33 | CN(C)c1cc2c(cc1Cl)NC(=O)CC(c1cccc(-c3nc(CN4CCOCC4)cs3)c1)=N2 | 138 to 143
34 | COC(=N)Nc1ccc(C(F)(F)F)cc1 | 121 to 123
35 | Cc1nn(-c2ccc(F)cc2)cc1C(=O)N(CC(=O)O)c1ccc(N2CCC(O)CC2)c(C#N)c1 | 124 to 125
36 | COc1cc(OC)nc(NC(=O)N=NS(=O)(=O)C2N(C)C=CN2C)n1 | 201 to 203
37 | CO/C=C1/C(=O)NC(=O)c2ccc(I)cc21 | 120 to 121
38 | CCCCc1nc(O)cc(COC)n1 | 96 to 98
39 | Cn1c(C(F)F)nn(-c2cc(O)c(Cl)cc2F)c1=O | 153 to 155
40 | Cc1ccsc1-c1nc(-c2c(F)cccc2Cl)nn1C | 80 to 82
41 | Cn1nc(O)c(Cl)c1Cl | 212 to 216
42 | CCOCc1nc2c(N)nc3cc(Br)ccc3c2n1CC1COC(C)(C)O1 (configuration not stated) | 176 to 177
43 | CCn1cc(C(=O)O)c(=O)c2cc(F)c(N3CCC(CN)C3)c(F)c21 (configuration not stated) | 219 to 221
44 | CCCCCCCCCCCCNC(=O)COc1ccc(/C=C/C(=O)C(F)(F)F)cc1 | 78.5 to 79

Row | Structure (SMILES) | melting point [°C]
45 | COc1cc(NCCC(=O)O)c(C(C)=O)cc1OC | 150 to 152
46 | CC(C)(C)OC(=O)N1CCCC1C(=O)NCCC(N)=O (configuration not stated) | 175
47 | Cc1ccnc(Sc2nc(C)c(CC(=O)O)s2)c1C(=O)O | 208 to 210
48 | COc1nc(NCn2nnc3ccccc32)nc(N(C)C)n1 | 222 to 224
49 | CCCCNC(=O)OC1c2ncccc2C(=O)N1c1ccc2ccc(Cl)nc2n1 (configuration not stated) | 215
50 | CCCc1nc(C#N)c(C#N)nc1Oc1ccccc1 | 130 to 132
51 | CCOC(=O)c1ncc(-c2cccs2)s1 | 68 to 69
52 | O=C1N(Cc2c[nH]cn2)CCN1c1cccc(Cl)c1 | 201 to 203
53 | COC1(c2cccc(Sc3ccc4c(c3)C(C)(C)S(=O)(=O)C4(C)C)c2)CCOCC1 | 133 to 135
54 | CC(C)OC(=O)c1cc(NC(=O)C(C)(C)C)c(F)cc1Cl | 81 to 83
55 | CC(=O)NC1(c2ccc(C(C)N3CCN(c4ncccn4)CC3)cc2)CC1 (configuration not stated) | 124 to 125
56 | COc1ccc2c(c1)Sc1cc(C#N)ccc1N2 | 198 to 199
57 | O=C1CCN(c2ccc(C=C3SC(=O)NC3=O)cc2Br)CC1 | > 210
58 | Oc1cc2c(cc1CCc1cccs1)OCC2 | 79 to 85
59 | CCn1c(COC(=O)NC(=O)c2ccc(Cl)cc2)nc(C(C)C)c1Sc1cc(Cl)cc(Cl)c1 | 82 to 83
60 | Cc1cc(S(N)(=O)=O)cs1 | 102 to 104
61 | CN(C)c1nc(N)nc(-c2cc(Cl)ccc2Cl)n1 | 178 to 179
62 | Cn1ncc2c1-c1c(Sc3ccccn3)sc(C(N)=O)c1CC2 | 234 to 236
63 | O=C1CCSC(c2ccccc2Cl)c2cc([N+](=O)[O-])ccc2N1 (configuration not stated) | 285
64 | COC(=O)c1ccc2c(c(C)nn2C)c1C1=NC(C)(C(C)C)C(=O)N1 (configuration not stated) | 130 to 150
65 | COC[C@H]1CN(c2ccc([C@H]3CC[C@H](OCC#N)CC3)cc2)C(=O)O1 | 43 to 45

Further lines, results first:

Row | melting point [°C] | Structure (SMILES)
66 | > 250 | O=C(O)c1ccc2c(Br)n[nH]c2c1
67 | 124 | CN(Cc1ccc(C2=NCCN2C(=O)OC(C)(C)C)cc1)C(=O)OCc1ccccc1
68 | 180 | Cc1ccc(C(=O)Nc2cc3c(cc2N)C(C)(C)CCC3(C)C)cc1
69 | 102 to 104 | CS(=O)(=O)CCNc1nccc(Oc2ccc(NC(=O)c3cc(F)cc(N4CCCCC4)c3)c3ccccc23)n1
70 | 171 to 173 | O=C(O)c1cccc(Oc2ccc(Br)cc2)c1
71 | 85 | Cc1ccc2c(c1)C(=O)c1cccn1-2
72 | 230 | O=c1cc(C=Cc2ccccc2)oc2ccc(O)cc12
73 | 98 to 100 | OC1Cc2ccccc2Sc2cc(F)c(F)cc21 (configuration not stated)
74 | 114 to 116 | COc1ccc(N(CCCC(=O)O)C(=O)c2ccc(Cl)cc2)cc1-c1ccccc1
75 | 228 | O=C(NN1CCCCC1)NS(=O)(=O)c1ccc(CCN2C(=O)c3ccccc3C2(O)c2ccccc2)cc1 (configuration not stated)
76 | 59 to 61 | COc1ccc(SCc2oc(=O)oc2C)cc1
77 | 113 to 114 | COc1cc(/C=C/CO)ccc1OCc1coc(-c2ccccc2)n1
78 | 195 | CCCCc1nc(S(=O)c2ccccc2)c(C(=O)O)n1Cc1ccc(-c2ccccc2C(=O)O)cc1 (configuration not stated)
79 | 120 to 121 | CCCc1cc2c(cc1C=Cc1ccc(C(=O)OC)cc1)C(C)(C)CCC2(C)C
80 | > 300 | O=C(c1ccccc1)c1c[nH]c2ncnc(Nc3cccc(CCO)c3)c12
81 | 116 to 118 | Cc1ccc(C(=O)c2c(C)cc(C)cc2OCC(O)CNC(C)(C)C)cc1 (configuration not stated)
82 | 114 to 115 | O=C(O)c1ccccc1Oc1ccc(Cl)cc1
83 | 157 to 158 | COCCOc1ccc(/C=C/C(=O)NS(=O)(=O)c2cccc(Cl)c2)c(Oc2ncc(C(F)(F)F)cc2Cl)c1
84 | 190 to 192 | Cc1csc2nc(COc3ccccc3)cn12
85 | 220 to 222 | O=C(O)C=CC12CC(c3ccccc31)c1ccccc12
86 | 299 to 300 | Cc1n[nH]c2c1nc(-c1ccccc1)c1cc(Br)ccc12

Row | melting point [°C] | Structure (SMILES)
87 | 116 to 118 | CCCOc1cc(C)c(Cl)c2c(=O)c3ccccc3sc12
88 | 181 to 182 | Cc1cccc(NC(=N)N(C)C)c1-c1ccccc1
89 | 140 to 141 | CC(C)(C)c1cc(C(c2ccccc2)N2CCCCC2)c(O)c(C(C)(C)C)c1 (configuration not stated)
90 | 121 to 123 | CC(C)(C)OC(=O)c1ccc2c(c1)NCc1ccccc1O2
91 | 114 to 115 | COC(=O)C1CC(=O)Nc2ccccc2C1 (configuration not stated)
92 | 164 to 165 | O=C(O)c1cccc2c1oc1ccccc12
93 | 212 to 213 | CC1(C)CCC(C)(C)c2cc(C(=O)c3ccc(C(=O)O)cc3)c(OCc3ccccc3)cc21
94 | 119 to 120 | C=CCN1CCN(C(=O)Cn2sc3ccccc3c2=O)CC1
95 | 150 | COc1ccc(S(=O)(=O)N(CC(N)=O)c2ccc(Cl)cc2C(C)c2ccccc2Cl)cc1OC (configuration not stated)
96 | 155 to 157 | Cc1cccc(-c2cn(C)cc(-c3cccc(C(F)(F)F)c3)c2=O)c1
97 | 71.1 | C#CCOc1cc(Oc2ccccc2)ncn1
98 | 174 to 175 | CCc1coc(Cc2ccc(NC(=O)/C=C/c3cnn(C)c3-c3ccc(F)cc3)cc2)n1
99 | 196 to 198 | c1ccc2c(c1)ccn2Nc1ncnc2c1ncn2-n1ccc2ccccc21
100 | 100 to 103 | Oc1ccccc1-c1c(Cl)cccc1Cl
101 | 86 to 88 | CCN(CC)CCCOc1ccc(-c2cc3ccccc3o2)cc1
102 | 95.2 to 95.6 | COc1ccc2ccccc2c1CC#N
103 | 125 to 127 | C[Si](C)(C)OC1(c2ccccc2F)C(=O)Nc2ccc(Cl)cc21 (configuration not stated)
104 | 267 to 269 | N#Cc1ccc(CCc2n[nH]c3c2c(=O)n(-c2ccccc2)c2ncccc32)cc1
105 | 253 to 254 | CCC(=C(c1ccc(O)cc1)c1ccc(O)cc1)c1ccc(OCC(=O)O)c(OC)c1
106 | 156 to 158 | COc1ccc(C(=O)NCCCC(=O)O)cc1OCc1ccccc1
107 | 86 to 89 | COC(=O)C1(CN=Cc2ccccc2)C=CC=CC1 (configuration not stated)
